ChEMBL document CHEMBL4507260 (2021)

How the values were obtained:
Conditions in all cases: Compound concentration 1000.0 nM
[1] = biological target: Serine/threonine-protein kinase Sgk2 (Homo sapiens) (UniProt Q9HBY8)
[2] = test system: Mast/stem cell growth factor receptor Kit (Homo sapiens), P10721 [D816H]
[3] = biological target: Receptor tyrosine-protein kinase erbB-3 (Homo sapiens) (UniProt P21860)
[4] = test system: Phosphatidylinositol 4,5-bisphosphate 3-kinase catalytic subunit alpha isoform (Homo sapiens), P42336 [E542K]
[5] = test system: Receptor-type tyrosine-protein kinase FLT3 (Homo sapiens), P36888 [UNDEFINED MUTATION]
[6] = test system: Phosphatidylinositol 4,5-bisphosphate 3-kinase catalytic subunit alpha isoform (Homo sapiens), P42336 [M1043I]
[7] = biological target: Homeodomain-interacting protein kinase 2 (Homo sapiens) (UniProt Q9H2X6)
[8] = biological target: Serine/threonine-protein kinase DCLK2 (Homo sapiens) (UniProt Q8N568)
[9] = biological target: Serine/threonine-protein kinase Nek11 (Homo sapiens) (UniProt Q8NG66)
[10] = biological target: Hepatocyte growth factor receptor (Homo sapiens) (UniProt P08581)
[11] = biological target: Cyclin-dependent kinase 7 (Homo sapiens) (UniProt P50613)
[12] = biological target: Mast/stem cell growth factor receptor Kit (Homo sapiens) (UniProt P10721)
Mast/stem cell growth factor receptor Kit (Homo sapiens), sequence (P10721 whole entry): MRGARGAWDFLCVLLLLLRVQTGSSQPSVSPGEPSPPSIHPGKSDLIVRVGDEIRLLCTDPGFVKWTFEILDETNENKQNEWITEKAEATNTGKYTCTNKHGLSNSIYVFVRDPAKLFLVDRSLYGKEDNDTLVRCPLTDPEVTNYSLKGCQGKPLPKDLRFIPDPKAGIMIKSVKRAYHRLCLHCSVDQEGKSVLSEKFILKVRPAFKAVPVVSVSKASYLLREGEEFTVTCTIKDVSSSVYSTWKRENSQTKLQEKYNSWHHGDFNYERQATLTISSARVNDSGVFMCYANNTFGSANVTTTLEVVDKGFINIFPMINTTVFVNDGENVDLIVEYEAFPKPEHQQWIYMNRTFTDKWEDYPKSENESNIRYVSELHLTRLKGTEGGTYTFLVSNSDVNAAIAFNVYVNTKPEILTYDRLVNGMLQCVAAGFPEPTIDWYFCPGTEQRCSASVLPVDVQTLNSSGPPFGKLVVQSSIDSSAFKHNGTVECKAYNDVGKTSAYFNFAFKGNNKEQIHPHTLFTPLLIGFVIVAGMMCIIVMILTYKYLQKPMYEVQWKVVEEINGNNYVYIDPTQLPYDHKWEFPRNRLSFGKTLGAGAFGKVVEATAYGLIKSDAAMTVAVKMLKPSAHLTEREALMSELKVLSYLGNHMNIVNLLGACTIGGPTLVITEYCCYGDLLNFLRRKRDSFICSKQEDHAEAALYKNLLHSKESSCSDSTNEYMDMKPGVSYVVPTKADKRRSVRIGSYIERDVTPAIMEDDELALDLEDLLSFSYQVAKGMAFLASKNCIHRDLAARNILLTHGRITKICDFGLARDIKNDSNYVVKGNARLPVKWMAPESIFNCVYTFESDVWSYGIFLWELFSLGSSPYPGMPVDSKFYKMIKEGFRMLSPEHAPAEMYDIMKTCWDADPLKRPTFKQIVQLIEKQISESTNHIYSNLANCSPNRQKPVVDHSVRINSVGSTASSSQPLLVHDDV

[13] = biological target: Serine/threonine-protein kinase PLK4 (Homo sapiens) (UniProt O00444)
[14] = biological target: Serine/threonine-protein kinase ICK (Homo sapiens) (UniProt Q9UPZ9)
[15] = biological target: Mitogen-activated protein kinase 9 (Homo sapiens) (UniProt P45984)
[16] = biological target: Interferon-induced, double-stranded RNA-activated protein kinase (Homo sapiens) (UniProt P19525)
[17] = biological target: Muscle, skeletal receptor tyrosine-protein kinase (Homo sapiens) (UniProt O15146)
Muscle, skeletal receptor tyrosine-protein kinase (Homo sapiens), sequence (O15146 whole entry): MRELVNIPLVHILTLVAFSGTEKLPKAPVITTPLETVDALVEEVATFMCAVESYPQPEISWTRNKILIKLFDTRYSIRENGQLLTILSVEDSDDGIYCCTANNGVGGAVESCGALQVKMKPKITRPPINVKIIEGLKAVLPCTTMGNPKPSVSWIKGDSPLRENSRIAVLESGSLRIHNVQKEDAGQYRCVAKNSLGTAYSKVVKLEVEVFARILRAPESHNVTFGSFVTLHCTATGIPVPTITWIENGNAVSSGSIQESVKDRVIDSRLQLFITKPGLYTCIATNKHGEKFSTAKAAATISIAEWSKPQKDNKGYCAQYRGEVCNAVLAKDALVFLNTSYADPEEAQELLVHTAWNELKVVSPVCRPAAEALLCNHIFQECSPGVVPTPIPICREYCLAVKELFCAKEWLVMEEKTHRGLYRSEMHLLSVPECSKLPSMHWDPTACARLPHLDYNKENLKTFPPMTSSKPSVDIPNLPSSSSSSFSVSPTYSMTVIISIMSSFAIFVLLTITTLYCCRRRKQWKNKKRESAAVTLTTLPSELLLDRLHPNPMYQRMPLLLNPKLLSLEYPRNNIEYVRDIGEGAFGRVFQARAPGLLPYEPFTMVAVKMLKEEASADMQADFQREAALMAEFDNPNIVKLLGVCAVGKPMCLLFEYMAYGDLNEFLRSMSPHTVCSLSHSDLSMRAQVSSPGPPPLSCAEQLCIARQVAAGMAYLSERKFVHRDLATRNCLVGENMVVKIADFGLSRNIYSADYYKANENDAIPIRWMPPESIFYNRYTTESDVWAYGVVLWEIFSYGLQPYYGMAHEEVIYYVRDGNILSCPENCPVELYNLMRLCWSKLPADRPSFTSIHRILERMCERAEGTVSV

[18] = biological target: Dual specificity mitogen-activated protein kinase kinase 7 (Homo sapiens) (UniProt O14733)
[19] = biological target: Casein kinase I isoform alpha-like (Homo sapiens) (UniProt Q8N752)
[20] = biological target: Serine/threonine-protein kinase DCLK3 (Homo sapiens) (UniProt Q9C098)
[21] = biological target: Serine/threonine-protein kinase RIO3 (Homo sapiens) (UniProt O14730)
Serine/threonine-protein kinase RIO3 (Homo sapiens), sequence (O14730 whole entry): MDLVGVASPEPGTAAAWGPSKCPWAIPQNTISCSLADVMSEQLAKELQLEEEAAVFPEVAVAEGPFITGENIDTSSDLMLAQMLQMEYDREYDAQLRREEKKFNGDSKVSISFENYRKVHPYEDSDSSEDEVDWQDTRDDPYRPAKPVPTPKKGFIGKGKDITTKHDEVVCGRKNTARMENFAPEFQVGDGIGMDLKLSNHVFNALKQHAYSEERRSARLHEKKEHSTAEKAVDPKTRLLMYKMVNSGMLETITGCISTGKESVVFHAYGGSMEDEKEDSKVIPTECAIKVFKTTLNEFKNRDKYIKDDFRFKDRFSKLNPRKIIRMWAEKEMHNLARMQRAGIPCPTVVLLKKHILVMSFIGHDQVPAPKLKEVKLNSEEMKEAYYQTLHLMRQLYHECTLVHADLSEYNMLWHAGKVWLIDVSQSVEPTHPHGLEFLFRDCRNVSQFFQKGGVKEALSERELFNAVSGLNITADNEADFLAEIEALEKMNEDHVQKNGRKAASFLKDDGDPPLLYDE

[22] = biological target: Serine/threonine-protein kinase VRK2 (Homo sapiens) (UniProt Q86Y07)
Serine/threonine-protein kinase VRK2 (Homo sapiens), sequence (Q86Y07 whole entry): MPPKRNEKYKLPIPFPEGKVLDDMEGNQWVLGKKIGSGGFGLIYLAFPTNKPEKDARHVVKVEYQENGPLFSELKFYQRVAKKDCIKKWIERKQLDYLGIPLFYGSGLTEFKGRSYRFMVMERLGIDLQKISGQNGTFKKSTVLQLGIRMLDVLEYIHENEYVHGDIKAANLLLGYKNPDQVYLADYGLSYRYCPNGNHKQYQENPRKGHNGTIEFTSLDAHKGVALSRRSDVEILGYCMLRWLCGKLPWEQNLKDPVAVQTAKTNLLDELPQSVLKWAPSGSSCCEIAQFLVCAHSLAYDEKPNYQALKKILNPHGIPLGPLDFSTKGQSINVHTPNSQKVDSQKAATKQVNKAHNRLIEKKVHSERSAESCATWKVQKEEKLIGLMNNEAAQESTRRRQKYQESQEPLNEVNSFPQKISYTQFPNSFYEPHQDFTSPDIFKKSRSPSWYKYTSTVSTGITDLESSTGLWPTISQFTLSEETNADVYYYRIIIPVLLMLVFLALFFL

[23] = biological target: Serine/threonine-protein kinase 16 (Homo sapiens) (UniProt O75716)
[24] = biological target: Cyclin-dependent kinase-like 1 (Homo sapiens) (UniProt Q00532)
[25] = biological target: Wee1-like protein kinase (Homo sapiens) (UniProt P30291)
[26] = biological target: Serine/threonine-protein kinase 32C (Homo sapiens) (UniProt Q86UX6)
[27] = biological target: Ephrin type-A receptor 7 (Homo sapiens) (UniProt Q15375)
[28] = biological target: Serine/threonine-protein kinase 32B (Homo sapiens) (UniProt Q9NY57)
[29] = biological target: Serine/threonine-protein kinase tousled-like 2 (Homo sapiens) (UniProt Q86UE8)
[30] = biological target: Rhodopsin kinase GRK1 (Homo sapiens) (UniProt Q15835)
[31] = biological target: Tyrosine-protein kinase receptor UFO (Homo sapiens) (UniProt P30530)
Tyrosine-protein kinase receptor UFO (Homo sapiens), sequence (P30530 whole entry): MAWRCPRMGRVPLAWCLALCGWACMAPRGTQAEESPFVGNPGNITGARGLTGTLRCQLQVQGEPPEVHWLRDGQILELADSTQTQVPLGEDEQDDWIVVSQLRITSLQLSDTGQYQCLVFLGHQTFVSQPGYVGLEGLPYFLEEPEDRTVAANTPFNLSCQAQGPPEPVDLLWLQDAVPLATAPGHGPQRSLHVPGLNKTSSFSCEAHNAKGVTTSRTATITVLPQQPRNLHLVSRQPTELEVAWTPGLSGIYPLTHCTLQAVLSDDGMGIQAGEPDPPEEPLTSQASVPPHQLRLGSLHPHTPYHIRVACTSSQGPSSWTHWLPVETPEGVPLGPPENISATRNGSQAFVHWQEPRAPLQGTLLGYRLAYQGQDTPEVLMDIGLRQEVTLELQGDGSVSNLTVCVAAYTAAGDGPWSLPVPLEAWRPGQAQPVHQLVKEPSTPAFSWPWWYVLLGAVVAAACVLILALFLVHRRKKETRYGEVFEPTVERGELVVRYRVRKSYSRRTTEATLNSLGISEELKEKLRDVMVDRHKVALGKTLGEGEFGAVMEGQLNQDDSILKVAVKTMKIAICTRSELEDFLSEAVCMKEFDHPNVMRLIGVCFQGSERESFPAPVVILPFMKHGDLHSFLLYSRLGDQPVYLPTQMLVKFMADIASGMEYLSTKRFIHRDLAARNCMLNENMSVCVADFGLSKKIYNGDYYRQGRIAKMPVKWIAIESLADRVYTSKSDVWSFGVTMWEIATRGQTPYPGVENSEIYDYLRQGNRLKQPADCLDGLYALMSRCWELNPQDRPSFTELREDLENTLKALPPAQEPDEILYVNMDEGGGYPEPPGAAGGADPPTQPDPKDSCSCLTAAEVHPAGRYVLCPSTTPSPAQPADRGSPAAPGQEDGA

[32] = biological target: Mitogen-activated protein kinase 3 (Homo sapiens) (UniProt P27361)
Mitogen-activated protein kinase 3 (Homo sapiens), sequence (P27361 whole entry): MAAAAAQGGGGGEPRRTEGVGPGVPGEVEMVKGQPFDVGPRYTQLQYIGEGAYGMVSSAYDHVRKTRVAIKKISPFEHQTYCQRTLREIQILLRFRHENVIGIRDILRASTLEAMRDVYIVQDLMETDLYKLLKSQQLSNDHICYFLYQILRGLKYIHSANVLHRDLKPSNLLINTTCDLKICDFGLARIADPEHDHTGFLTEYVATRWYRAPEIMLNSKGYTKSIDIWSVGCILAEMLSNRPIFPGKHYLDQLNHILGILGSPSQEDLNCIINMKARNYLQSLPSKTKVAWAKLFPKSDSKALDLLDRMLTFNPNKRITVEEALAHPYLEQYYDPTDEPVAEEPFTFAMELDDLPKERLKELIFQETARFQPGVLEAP

[33] = biological target: Activin receptor type-1B (Homo sapiens) (UniProt P36896)
[34] = biological target: Tyrosine-protein kinase ABL1 (Homo sapiens) (UniProt P00519)
[35] = biological target: Cyclin-dependent kinase 11A (Homo sapiens) (UniProt Q9UQ88)
[36] = test system: Mast/stem cell growth factor receptor Kit (Homo sapiens), P10721 [D816V]
Mast/stem cell growth factor receptor Kit (Homo sapiens), P10721 [D816V], sequence (P10721 whole entry D816V): as the sequence (P10721 whole entry) above, with D816V counted along it

[37] = biological target: Serine/threonine-protein kinase PAK 3 (Homo sapiens) (UniProt O75914)
[38] = biological target: Ephrin type-B receptor 6 (Homo sapiens) (UniProt O15197)
[39] = biological target: Cyclin-dependent kinase 3 (Homo sapiens) (UniProt Q00526)
[40] = test system: Receptor-type tyrosine-protein kinase FLT3 (Homo sapiens), P36888 [D835Y]
[41] = biological target: Non-receptor tyrosine-protein kinase TNK1 (Homo sapiens) (UniProt Q13470)
[42] = biological target: Ephrin type-B receptor 2 (Homo sapiens) (UniProt P29323)
[43] = test system: Epidermal growth factor receptor (Homo sapiens), P00533 [UNDEFINED MUTATION]
[44] = biological target: Protein kinase C delta type (Homo sapiens) (UniProt Q05655)
Protein kinase C delta type (Homo sapiens), sequence (Q05655 whole entry, looked up): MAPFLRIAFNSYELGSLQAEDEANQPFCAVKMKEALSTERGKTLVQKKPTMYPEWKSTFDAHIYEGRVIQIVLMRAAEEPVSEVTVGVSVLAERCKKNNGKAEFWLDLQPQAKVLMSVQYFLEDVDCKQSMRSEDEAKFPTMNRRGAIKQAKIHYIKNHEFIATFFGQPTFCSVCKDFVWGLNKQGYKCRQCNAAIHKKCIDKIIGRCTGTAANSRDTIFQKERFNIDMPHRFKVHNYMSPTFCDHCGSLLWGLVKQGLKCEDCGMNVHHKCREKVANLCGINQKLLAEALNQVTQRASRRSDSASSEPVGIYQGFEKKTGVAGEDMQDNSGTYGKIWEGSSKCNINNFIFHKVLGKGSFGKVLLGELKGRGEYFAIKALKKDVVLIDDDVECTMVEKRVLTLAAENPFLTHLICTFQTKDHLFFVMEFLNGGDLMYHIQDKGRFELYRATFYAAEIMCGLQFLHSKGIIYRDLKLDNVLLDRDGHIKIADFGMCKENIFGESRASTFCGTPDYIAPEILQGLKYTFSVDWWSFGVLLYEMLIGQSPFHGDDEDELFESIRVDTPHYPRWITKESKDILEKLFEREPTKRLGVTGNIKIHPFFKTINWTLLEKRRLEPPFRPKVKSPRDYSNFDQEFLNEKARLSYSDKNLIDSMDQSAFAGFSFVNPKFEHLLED

[45] = biological target: Protein kinase C epsilon type (Homo sapiens) (UniProt Q02156)

Mast/stem cell growth factor receptor Kit (Homo sapiens), P10721 [D816H], sequence (P10721 whole entry D816H): as the sequence (P10721 whole entry) above, with D816H counted along it

c1ccc(N2CCN(Cc3nc4ccccc4[nH]3)CC2)nc1 [ABT-724]
residual activity [1]: 100% | residual activity [2]: 100% | residual activity [3]: 91% | residual activity [4]: 100% | residual activity [5]: 100% | residual activity [6]: 87% | residual activity [7]: 26% | residual activity [8]: 98% | residual activity [9]: 100% | residual activity [10]: 100% | residual activity [11]: 48% | residual activity [12]: 100% | residual activity [13]: 99% | residual activity [14]: 100% | residual activity [15]: 100% | residual activity [16]: 100% | residual activity [17]: 100% | residual activity [18]: 100% | residual activity [19]: 100% | residual activity [20]: 93% | residual activity [21]: 100% | residual activity [22]: 100% | residual activity [23]: 87% | residual activity [24]: 78% | residual activity [25]: 100% | residual activity [26]: 100% | residual activity [27]: 100% | residual activity [28]: 100% | residual activity [29]: 100% | residual activity [30]: 92% | residual activity [31]: 100% | residual activity [32]: 100% | residual activity [33]: 85% | residual activity [34]: 100% | residual activity [35]: 100% | residual activity [36]: 100% | residual activity [37]: 100% | residual activity [38]: 75% | residual activity [39]: 100% | residual activity [40]: 100% | residual activity [41]: 59% | residual activity [42]: 98% | residual activity [43]: 100% | residual activity [44]: 100% | residual activity [45]: 100%

CSc1cccnc1N1CCN(Cc2nc3ccccc3[nH]2)CC1 [A-769]
residual activity [1]: 81% | residual activity [2]: 100% | residual activity [3]: 90% | residual activity [4]: 82% | residual activity [5]: 73% | residual activity [6]: 94% | residual activity [7]: 62% | residual activity [8]: 100% | residual activity [9]: 79% | residual activity [10]: 100% | residual activity [11]: 61% | residual activity [12]: 72% | residual activity [13]: 84% | residual activity [14]: 68% | residual activity [15]: 68% | residual activity [16]: 100% | residual activity [17]: 100% | residual activity [18]: 92% | residual activity [19]: 100% | residual activity [20]: 100% | residual activity [21]: 100% | residual activity [22]: 75% | residual activity [23]: 100% | residual activity [24]: 100% | residual activity [25]: 100% | residual activity [26]: 71% | residual activity [27]: 93% | residual activity [28]: 100% | residual activity [29]: 100% | residual activity [30]: 100% | residual activity [31]: 100% | residual activity [32]: 99% | residual activity [33]: 100% | residual activity [34]: 78% | residual activity [35]: 100% | residual activity [36]: 90% | residual activity [37]: 87% | residual activity [38]: 89% | residual activity [39]: 100% | residual activity [40]: 100% | residual activity [41]: 84% | residual activity [42]: 99% | residual activity [43]: 100% | residual activity [44]: 100% | residual activity [45]: 77%
